Among the data in PubChem BioAssay (NCI) are TGI values, retold here.

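How tested: cells in 96-well plates exposed to compound for 48 hours at five concentrations. TGI denotes the concentration required for complete inhibition of growth.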

Some test systems named below: MOLT-4 leukemia; HOP-62 NSCLC; IGROV1 ovarian; HOP-92 NSCLC; RPMI-8226 leukemia; CAKI-1 renal; MDA-N; OVCAR-5 ovarian; COLO 205 colon; UACC-257 melanoma; MDA-MB-435; M14 melanoma; T-47D breast; CCRF-CEM leukemia; TK-10 renal; U251 CNS; NCI-H522 lung; OVCAR-4 ovarian; BT-549 breast.
Holding throughout (assay): NCI anticancer screen, dose series, 48 h

As to `CCOC(=O)Cn1c2ccc(Br)cc2c2nc3ccccc3nc21`, the TGI in the assay on MOLT-4 leukemia, in the assay with HOP-62 NSCLC, in the assay with IGROV1 ovarian, with HOP-92 NSCLC, with RPMI-8226 leukemia and in the assay on CAKI-1 renal was greater than 100 µM each time. The TGI in the assay with MDA-N, with OVCAR-5 ovarian, in the assay on COLO 205 colon, with UACC-257 melanoma, in the assay with MDA-MB-435 and in the assay with M14 melanoma was greater than 100 µM each time. For the same molecule, the TGI in the assay on T-47D breast, in the assay on CCRF-CEM leukemia, with TK-10 renal and in the assay with U251 CNS was greater than 100 µM throughout.

Turning to `Cc1c(/C=N/NC(=S)Nc2ccc(Cl)cc2)c(=O)n(-c2ccccc2)n1C`, the TGI in the assay on MOLT-4 leukemia is greater than 100 µM; with HOP-62 NSCLC, 27.5 µM; in the assay on IGROV1 ovarian it was 45.2 µM; in the assay with RPMI-8226 leukemia, greater than 100 µM; with CAKI-1 renal, greater than 48.3 µM; in the assay on NCI-H522 lung it was 22.4 µM. Moreover, the TGI in the assay with MDA-N, in the assay with OVCAR-5 ovarian, with COLO 205 colon, in the assay with UACC-257 melanoma, with MDA-MB-435 and with M14 melanoma was greater than 100 µM each time. The TGI was greater than 83.9 µM in the assay on T-47D breast; greater than 100 µM with CCRF-CEM leukemia; greater than 58.3 µM in the assay with TK-10 renal; 30.7 µM in the assay on U251 CNS; greater than 57.1 µM in the assay on OVCAR-4 ovarian.

`COc1ccc(N2C(=O)C3c4[nH]c5ccccc5c4C4CC(C)(C)CC(C)(C)C4C3C2=O)cc1` (configuration not stated): the TGI was 36.6 µM in the assay with MOLT-4 leukemia; 31.3 µM in the assay on HOP-62 NSCLC; 65.5 µM with IGROV1 ovarian; 28.7 µM in the assay with HOP-92 NSCLC; greater than 100 µM in the assay on RPMI-8226 leukemia; 38.1 µM in the assay on NCI-H522 lung. The TGI is 34.8 µM in the assay on COLO 205 colon; 46.1 µM with UACC-257 melanoma; 41.8 µM with M14 melanoma; greater than 100 µM with CCRF-CEM leukemia; 31.2 µM with U251 CNS; 26.2 µM in the assay with OVCAR-4 ovarian.

Take `CN(C)C=Nc1c2ccccc2nc2ccccc12`: the TGI is 9.05 µM in the assay with MOLT-4 leukemia; 25.4 µM with HOP-62 NSCLC; 26.3 µM in the assay on IGROV1 ovarian; 22.3 µM in the assay on HOP-92 NSCLC; 6.88 µM in the assay on RPMI-8226 leukemia; greater than 100 µM in the assay with CAKI-1 renal. The TGI in the assay with NCI-H522 lung was 4.99 µM; in the assay with OVCAR-5 ovarian, 32.8 µM; with COLO 205 colon, 8.87 µM; with UACC-257 melanoma, 9.3 µM; with MDA-MB-435, 15.1 µM; with M14 melanoma, 16.2 µM. Also, the TGI in the assay on T-47D breast amounted to 9.67 µM; with CCRF-CEM leukemia, 21.2 µM; in the assay with TK-10 renal, 40 µM; in the assay with U251 CNS, 15 µM; in the assay with OVCAR-4 ovarian it was 21.1 µM; with BT-549 breast, 13.2 µM.

On to `CC(c1ccc2c(c1)CCC1C2CC2OC23CC=CC(=O)[C@]13C)C1C[C@]2(C)O[C@]2(C)[C@H](O)O1` (some centres not stated), for which the TGI in the assay on MOLT-4 leukemia was greater than 100 µM; in the assay on HOP-62 NSCLC it was 40.3 µM; with IGROV1 ovarian, greater than 100 µM; in the assay with HOP-92 NSCLC it was greater than 100 µM; in the assay with RPMI-8226 leukemia it was greater than 100 µM; in the assay on CAKI-1 renal it was 81.3 µM. Further, the TGI in the assay with NCI-H522 lung is greater than 100 µM; in the assay with OVCAR-5 ovarian it was greater than 100 µM; in the assay with COLO 205 colon, greater than 100 µM; in the assay on UACC-257 melanoma, 56.8 µM; with M14 melanoma, 33.7 µM; with CCRF-CEM leukemia, greater than 100 µM. For the same molecule, the TGI in the assay on TK-10 renal was greater than 100 µM; with U251 CNS, 55.3 µM.

On to `O=C1Cc2nc(CO)c(CO)c(CO)c2CO1`, for which the TGI in the assay with HOP-62 NSCLC, in the assay on IGROV1 ovarian, with HOP-92 NSCLC, in the assay with RPMI-8226 leukemia, with CAKI-1 renal and with NCI-H522 lung was greater than 100 µM each time. In addition, the TGI in the assay on OVCAR-5 ovarian, in the assay on COLO 205 colon, in the assay on UACC-257 melanoma, in the assay with M14 melanoma, in the assay on CCRF-CEM leukemia and with TK-10 renal was greater than 100 µM throughout. In addition, the TGI with U251 CNS is greater than 100 µM.

For the molecule `O=c1[nH]c(=O)n(C2CC(O)C(CO)O2)cc1C(F)(C(F)(F)F)C(F)(F)F` (configuration not stated), the TGI with MOLT-4 leukemia, in the assay with HOP-62 NSCLC, in the assay on IGROV1 ovarian, with HOP-92 NSCLC, in the assay on RPMI-8226 leukemia and in the assay on CAKI-1 renal was greater than 100 µM each time. Further, the TGI in the assay on NCI-H522 lung, in the assay on OVCAR-5 ovarian, with COLO 205 colon, in the assay on UACC-257 melanoma, in the assay on M14 melanoma and with CCRF-CEM leukemia was greater than 100 µM each time. The TGI in the assay with TK-10 renal, with U251 CNS and in the assay on OVCAR-4 ovarian was greater than 100 µM in each case.

`COC1(C)C(=O)N2C1N(C(=O)OC(C)(C)C)CC2(C)C` (configuration not stated): the TGI with MOLT-4 leukemia, with HOP-62 NSCLC, in the assay on IGROV1 ovarian, in the assay on HOP-92 NSCLC, in the assay with RPMI-8226 leukemia and with CAKI-1 renal was greater than 100 µM throughout. For the same molecule, the TGI in the assay with NCI-H522 lung, with OVCAR-5 ovarian, in the assay on COLO 205 colon, in the assay on UACC-257 melanoma, in the assay on M14 melanoma and with CCRF-CEM leukemia was greater than 100 µM each time. Besides, the TGI with TK-10 renal, in the assay with U251 CNS and in the assay on OVCAR-4 ovarian was greater than 100 µM in each case.

Take `C=CCC1(Sc2ccccn2)Sc2ccc3ccccc3c2-c2c(ccc3ccccc23)S1`: the TGI in the assay with MOLT-4 leukemia, with HOP-62 NSCLC, with IGROV1 ovarian, in the assay with HOP-92 NSCLC, in the assay with CAKI-1 renal and in the assay on NCI-H522 lung was greater than 100 µM throughout. The TGI in the assay with OVCAR-5 ovarian, in the assay with COLO 205 colon, in the assay on UACC-257 melanoma, with MDA-MB-435, with M14 melanoma and in the assay on T-47D breast was greater than 100 µM each time. Also, the TGI in the assay with CCRF-CEM leukemia, in the assay with TK-10 renal, with U251 CNS and in the assay on OVCAR-4 ovarian was greater than 100 µM in each case.

Take `CNC1c2ccccc2C(=O)c2cc3c(cc21)OCCOCCOCCOCCO3` (configuration not stated): the TGI in the assay on MOLT-4 leukemia was 92.2 µM; with HOP-62 NSCLC it was greater than 100 µM; in the assay with IGROV1 ovarian, greater than 100 µM; in the assay on RPMI-8226 leukemia it was greater than 100 µM; in the assay with NCI-H522 lung it was greater than 100 µM; in the assay with MDA-N, greater than 100 µM. The TGI with OVCAR-5 ovarian, with COLO 205 colon, in the assay on UACC-257 melanoma, with MDA-MB-435, in the assay on M14 melanoma and in the assay on T-47D breast was greater than 100 µM in each case. Further, the TGI was 46.1 µM in the assay with CCRF-CEM leukemia, greater than 100 µM in the assay on TK-10 renal, greater than 100 µM in the assay on U251 CNS and greater than 100 µM in the assay on OVCAR-4 ovarian.

As for `CC(=O)c1cc2c(s1)C(=O)c1sccc1C2=O`, the TGI worked out at 0.292 µM in the assay on MOLT-4 leukemia; 0.0854 µM in the assay on HOP-62 NSCLC; 0.337 µM in the assay with IGROV1 ovarian; 0.746 µM in the assay on HOP-92 NSCLC; 0.191 µM in the assay on RPMI-8226 leukemia; 0.413 µM in the assay on CAKI-1 renal. In addition, the TGI with NCI-H522 lung was determined as 0.0521 µM; in the assay with OVCAR-5 ovarian, 0.158 µM; with COLO 205 colon, 2.63 µM; with UACC-257 melanoma it was 0.0289 µM; in the assay with T-47D breast, 0.7 µM; in the assay with CCRF-CEM leukemia it was 0.0912 µM. Moreover, the TGI in the assay on TK-10 renal amounted to 0.414 µM; in the assay with U251 CNS, 0.0556 µM; with OVCAR-4 ovarian, 0.195 µM; with BT-549 breast it was 0.0321 µM.

For the molecule `CCOC(=O)Cc1nnc2n(-c3ccccc3)c(=O)c3ccccc3n12`, the TGI in the assay with MOLT-4 leukemia is greater than 100 µM; in the assay with HOP-62 NSCLC it was greater than 100 µM; with IGROV1 ovarian, greater than 100 µM; in the assay with HOP-92 NSCLC, greater than 100 µM; with CAKI-1 renal, 43.3 µM; with NCI-H522 lung, greater than 100 µM. For the same molecule, the TGI in the assay with MDA-N, with OVCAR-5 ovarian, in the assay with COLO 205 colon, with UACC-257 melanoma, in the assay with MDA-MB-435 and with M14 melanoma was greater than 100 µM throughout. Moreover, the TGI in the assay on T-47D breast, with CCRF-CEM leukemia, with TK-10 renal, with U251 CNS and in the assay on OVCAR-4 ovarian was greater than 100 µM each time.

Consider `c1cc2nnsc2s1`, for which the TGI in the assay on MOLT-4 leukemia, with HOP-62 NSCLC, with IGROV1 ovarian, in the assay with HOP-92 NSCLC, in the assay on RPMI-8226 leukemia and in the assay on CAKI-1 renal was greater than 100 µM in each case. In addition, the TGI in the assay with NCI-H522 lung, in the assay on OVCAR-5 ovarian, in the assay with COLO 205 colon, in the assay with UACC-257 melanoma, in the assay on M14 melanoma and with CCRF-CEM leukemia was greater than 100 µM throughout. Besides, the TGI with TK-10 renal, with U251 CNS and in the assay with OVCAR-4 ovarian was greater than 100 µM throughout.

`N#CC(C#N)=C/C=C/c1c(Cl)cccc1Cl`: the TGI with MOLT-4 leukemia amounted to 9.01 µM; with HOP-62 NSCLC, 8.87 µM; in the assay with IGROV1 ovarian, 4.27 µM; with HOP-92 NSCLC it was 4.8 µM; in the assay on RPMI-8226 leukemia, 7.46 µM; in the assay on CAKI-1 renal, 4.55 µM. The TGI in the assay on NCI-H522 lung was found to be 3.06 µM; with MDA-N, 3.23 µM; in the assay on COLO 205 colon it was 3.17 µM; with UACC-257 melanoma, 2.99 µM; with MDA-MB-435 it was 4.59 µM; in the assay with M14 melanoma, 3.06 µM. The TGI is 6.19 µM in the assay with T-47D breast; greater than 10 µM in the assay on CCRF-CEM leukemia; 6.24 µM with TK-10 renal; 4.08 µM with U251 CNS; 3.49 µM in the assay on OVCAR-4 ovarian.
